According to PubChem BioAssay (NCI):
Where “and” joins values, the source holds several entries; their conditions need not be identical. Equal entries are not always repeated.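 1) Cells in 96-well plates. 2) Compound, 48 h, 5 concentrations. 3) Linear interpolation between surrounding doses. 4) Unreached endpoint = highest concentration. At the GI50, growth is halved. The concentration for full growth arrest is given as TGI.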

What was measured:
Experiment in all cases: NCI tumour cell line growth inhibition, 48 h
BT-549 breast = test system: BT-549 breast
CAKI-1 renal = test system: CAKI-1 renal
HL-60(TB) leukemia = test system: HL-60(TB) leukemia
HT29 colon = test system: HT29 colon
PC-3 prostate = test system: PC-3 prostate
RPMI-8226 leukemia = test system: RPMI-8226 leukemia
SK-OV-3 ovarian = test system: SK-OV-3 ovarian
SW-620 colon = test system: SW-620 colon
UACC-62 melanoma = test system: UACC-62 melanoma
A549 NSCLC = test system: A549 NSCLC

SMILES | TGI (BT-549 breast) [µM] | TGI (CAKI-1 renal) [µM] | TGI (HL-60(TB) leukemia) | TGI (HT29 colon) [µM] | TGI (PC-3 prostate) [µM] | TGI (RPMI-8226 leukemia) | TGI (SK-OV-3 ovarian) [µM] | TGI (SW-620 colon) [µM] | TGI (UACC-62 melanoma) [µM] | GI50 (A549 NSCLC) | TGI (A549 NSCLC) [µM] | GI50 (BT-549 breast) [µM] | GI50 (CAKI-1 renal) [µM] | GI50 (HT29 colon) | GI50 (PC-3 prostate) | GI50 (RPMI-8226 leukemia) | GI50 (SK-OV-3 ovarian) [µM] | GI50 (SW-620 colon) | GI50 (UACC-62 melanoma) [µM] | GI50 (HL-60(TB) leukemia) [nM]
OC(COC(c1ccccc1)(c1ccccc1)c1ccccc1)C(O)CC1SCCS1 (configuration not stated) | 44.1 | 66.6 | > 100 µM | 34.3 | 31.8 | 34.2 µM | 48.9 | > 100 | 36 |  |  |  |  |  |  |  |  |  |  | 
COc1ccc(/C(COc2ccc3oc(-c4ccccc4)cc(=O)c3c2)=N\O)cc1 | 5.5 | 24.7 | > 23.2 µM | > 50 | > 19.2 | 20 µM | > 33.5 | > 50 | 2.22 | 0.133 µM | > 50 | 0.836 | 0.0618 | 0.783 µM | 0.202 µM | 196 nM | 0.747 | 0.382 µM | 0.0338 | 
COc1cc(Nc2ncc(-c3ccccc3)o2)cc(OC)c1 | > 25 | > 25 | > 25 µM | > 25 | > 25 | > 25 µM | > 25 | > 25 | > 25 | > 25 µM | > 25 | > 25 | > 19.2 | > 25 µM | > 25 µM | > 25000 nM | > 25 | > 25 µM | > 25 | > 25000
Cc1ccccc1NC(=O)c1sc2nc(C)c(C(=O)/C=C/c3ccccc3)cc2c1N | 5.28 | 2.68 | 2.72 µM | 3.21 | 3.77 | 3.48 µM | 25.9 | 2.45 | 2.04 | 1.58 µM | 9.7 | 1.33 | 1.08 | 1.18 µM | 1.33 µM | 1200 nM | 2.5 | 1 µM | 0.9 | 922
CC1(C)CNc2cc(NC(=O)c3cccnc3NCc3ccncc3)ccc21 | 98.2 | > 100 | 81.5 µM | > 100 | > 100 | > 100 µM | > 100 | > 100 | 48.4 | 31.9 µM | > 100 | 25.2 | 21.1 | 32.2 µM | 25.4 µM | 21900 nM | 26.5 | 48.2 µM | 12.9 | 28000
CNC(=O)c1c(NC(=O)c2ccc(C(C)(C)C)cc2)sc2c1CCC(=O)C2 | 1.68 | 0.945 | 1.58 µM | 1.56 | 1.35 | 0.511 µM | 6.17 | 1.27 | 1.28 | 0.3 µM | 1.6 | 0.352 | 0.203 | 0.263 µM | 0.0797 µM | 55.3 nM | 1.4 | 0.0984 µM | 0.262 | 261
CCCCCCCCCCCCCC[N+](C)(C)CCCCCCCCCCCCCC | 5.47 | 24.3 | 4.89 µM |  | 4.45 | 4.44 µM | 19.7 |  | 5.7 |  |  | 2.38 | 3.56 |  | 1.85 µM | 1770 nM | 3.6 |  | 1.89 | 2070
CC1CC[P+](c2ccccc2)(c2ccccc2)c2c1ccc1ccccc21 (configuration not stated) | 6.68 | 32.6 | 21.4 µM | 13.9 | 7.34 | 11.6 µM | 16.4 | > 100 | 20.1 |  | > 100 |  |  |  |  | 1630 nM | 2.73 | 5.95 µM |  | 
COc1cc(/C=N/Nc2ncnc3c2cnn3-c2ccccc2)ccc1O | > 25 | > 25 | > 25 µM | > 24.1 | > 25 | > 25 µM | > 25 | > 25 | > 25 | > 20.5 µM | > 25 | > 25 | 2.52 | 8.18 µM | 5.24 µM | > 25000 nM | 9.88 | 11.1 µM | 15.6 | 11700
COc1ccc(CN2c3ccccc3Sc3ccccc32)c(C(F)(F)F)c1 | 31.9 | > 100 | 13.9 µM | 10.9 | > 100 | 31.5 µM | > 100 | > 100 | > 100 | 0.807 µM | 68.5 | 3.12 | 1.53 | 0.681 µM | 0.546 µM | 3000 nM | 0.557 | 0.443 µM | 0.917 | 412
CCOCCCn1c2c(c3c(O)cccc31)C(=O)c1ccccc1-2 | 87.8 | 64.1 | 31.4 µM | > 100 | 36.7 | 43.9 µM | 72.4 | > 100 | 30.1 | 29.2 µM | > 100 | 29 | 21.6 | 30.2 µM | 14.7 µM | 16400 nM | 24.8 | 28.4 µM | 14.5 | 13200
COc1cccc(CC(C)=C(c2ccc(OCCN3CCCCC3)cc2)c2ccc(OCCN3CCCCC3)cc2)c1 | 3.82 | 4.29 | 4.12 µM | 2.79 | 3.75 | 4.41 µM | 4.23 | 3.78 | 4.17 | 2.2 µM | 4.35 | 1.93 | 2.3 | 0.82 µM | 1.83 µM | 1620 nM | 2.2 | 1.74 µM | 2.1 | 1780
CCN(Cc1ccccc1)C1CCN(Cc2cc(Br)ccc2O)CC1 | > 100 | > 100 | 98.8 µM | > 100 | > 100 | > 100 µM | > 100 | > 100 | > 100 | 69.6 µM | > 100 | 44.4 | 57.9 | 20.1 µM | 38.9 µM | 25500 nM | 77.4 | 27.2 µM | 26.6 | 31300
COC(=O)[C@H](Cc1cnc[nH]1)NC(=O)[C@@H](NC(=O)Nc1cc(C(F)(F)F)cc(C(F)(F)F)c1)C(C)C | 33.3 | 32.7 | 39.3 µM | 33.8 | 28.4 | 38.9 µM | 32.5 | 35.5 | 27.2 | 16.7 µM | 32.7 | 16.9 | 15.9 | 18.1 µM | 14.5 µM | 16100 nM | 18.5 | 18 µM | 13.9 | 20200
COc1ccc(Cc2coc3ccccc3c2=O)cc1OC | > 100 | 49.5 | > 100 µM | > 100 | > 100 | > 100 µM | > 100 | > 100 | > 100 |  | > 100 |  |  |  |  |  |  |  |  | 
COc1ccc(-c2nc(-c3ccc(C)cc3)cn3ccnc23)cc1 | > 50 | > 50 | > 50 µM |  | > 50 | > 50 µM | > 50 | > 50 | > 50 | 3.97 µM | > 50 | 26.4 | 4.78 |  | 4.44 µM | 2890 nM | 33.5 | 2.8 µM | 4.39 | 2580
O=C(/C=C\c1ccc([N+](=O)[O-])cc1)c1ccccc(=O)c1O | 6.17 | 4.61 | 1.63 µM | 3.85 | 9.84 | 4.5 µM | 17.2 | > 21.6 | 3.13 |  | 11.9 |  |  |  |  |  |  |  |  | 
COC12C=C/C(=C(/C(=O)OCc3ccccn3)C(=O)CCCCCCCCC3(OC)C=C/C(=C(/C(=O)OCc4ccccn4)C(=O)CCCCCCCC1)O3)O2 | 2.07 | 3.4 | 2.17 µM | 2.89 | 3.98 | 1.85 µM | 60.9 | 2.09 | 1.22 | 0.626 µM | 3.49 | 0.401 | 0.481 | 0.423 µM | 0.719 µM | 371 nM | 0.889 | 0.385 µM | 0.348 | 306
COCc1c(-c2cc3cc(C)cc(OC)c3s2)c2c(N)ncnn2c1CN1CCNC(=O)C1 | 17.1 | 44.2 | 32.7 µM | 19.9 | > 100 | 6.83 µM | 7.72 | > 100 | 23.5 | 3.2 µM | 29.9 | 1.03 | 4.88 | 3.68 µM | 8.54 µM | 1580 nM | 2.62 | 3.5 µM | 4.08 | 8710
CC1=C(SCCC(=O)OC(C[Se]C2=C(C)C(=O)c3ccccc3C2=O)C(=O)NCCCCCC(=O)OCc2ccccc2)C(=O)c2ccccc2C1=O (configuration not stated) | 12.9 | 21.3 | 8.52 µM | 13.3 | 9.13 | 7.76 µM | 19.7 | 9.34 | 20.9 | 3.95 µM | 11.4 | 3.81 | 6.89 | 3.56 µM | 2.55 µM | 2650 nM | 7.1 | 2.43 µM | 8.04 | 3090
O=S(=O)(NNc1ccccc1)c1ccccc1 | 44.2 | 13.5 | 13.5 µM | 27.2 | 22.9 | 46.4 µM | > 100 | > 100 | 30 |  | 23.5 |  |  |  |  |  |  |  |  | 
CCN(CC)CCCNc1cc(OC)cc2nc3cc(Cl)ccc3nc12 | 15.3 | 5.03 | 6.66 µM | 1.87 | 7.43 | 6.25 µM | 14.6 | 11.2 | 4.25 | 1.18 µM | 5.3 | 4.95 | 1.75 | 0.399 µM | 1.97 µM | 2530 nM | 3.6 | 0.779 µM | 2.19 | 2220
CC1C(C)N(C(=O)CCl)c2ccccc2N1C(=O)CCl (configuration not stated) | 2.41 | 0.355 | 0.535 µM | 0.523 | 2.85 | 0.649 µM | 3 | 0.485 | 2.1 | 2.25 µM | 6.11 | 0.849 | 0.186 | 0.225 µM | 1.19 µM | 210 nM | 1.58 | 0.209 µM | 0.624 | 211
CC1=C(c2ccccc2)C(O)(c2ccccc2)C(C)C1=O (configuration not stated) | 55.4 | > 100 | 87.4 µM | > 100 | > 100 |  | > 100 | > 100 | > 100 | 32.5 µM | > 100 | 14.6 | 24.6 | 10.5 µM | 22.8 µM |  | 20 | 6.18 µM | 9.97 | 16600
CCC(C)Nc1ccc(N)cc1 (configuration not stated) | 20.9 | > 100 | 5.05 µM | 10.7 | 11.2 |  | 93.3 | 15.5 | 12.5 | 4.7 µM | 48.5 | 6.26 | 16.7 | 3.16 µM | 2.56 µM |  | 4.98 | 4.16 µM | 2.91 | 1480
Nc1nc([Se])c2ncn(C3OC(CO)C(O)C3O)c2n1 (configuration not stated) | > 100 | > 100 | > 100 µM | 82.9 | > 100 |  | > 100 | > 100 | > 100 | 25.1 µM | > 100 | 30.6 | 22.5 | 4.29 µM | 24.8 µM |  | 6.96 | 28.8 µM | 4.16 | 4490
CN(C)c1ccc2oc(=O)c3ccccc3c2c1 | > 100 | > 100 | > 100 µM | > 100 | > 100 | > 100 µM |  | > 100 | > 100 |  | > 100 |  |  |  |  |  |  |  |  | 
CC(C)(C)C1CCC2c3c([nH]c4ccccc34)C3C(=O)N(c4ccc(Cl)cc4)C(=O)C3C2C1 (configuration not stated) | > 100 |  | 38.8 µM and > 10 µM | > 100 | > 100 | 77 µM and > 10 µM | > 100 | > 100 | > 100 | 67 µM and > 10 µM | > 100 |  |  | 34.5 µM and > 10 µM | 37.4 µM and > 10 µM | 27200 nM and > 10000 nM | > 100 | 53.9 µM and > 10 µM | > 100 | 
